From US12714702B2, “Compositions and methods for treating or preventing pulmonary hypertension” (priority 2020, dated 2026)

What was measured:
Type in all cases: cell-based
[1] = system: serum-starved bovine PASMCs; assay: Annexin V FITC assay (apoptotic induction); settings: 2.5 or 5 μM, 24 hours, concentration-dependent
Experimental: (§1) In FIGS. 9A-9B, PASMC were serum starved for 24 hours, and then treated with varying QA concentrations in serum-starved media. Quantification was performed using Cyto-ID® autophagy kit and Annexin-V/FITC apoptosis kit. […] In FIG. 9C, autophagy inhibition by QA (5 μM) as depicted by increase in LC3B-II concentration in bovine high altitude PASMC quantified by western blot assay kit. Data represent mean±SD (n=3). *p<0.05.
Bovine PASMC were serum starved in FBS-free media for 24 hours, and then treated with QA for 24 hours at various concentrations (0, 2.5, or 5 μM). Annexin V levels were measured with Annexin V FITC assay kit (#600300, Cayman Chemical, Ann Arbor, MI) according to manufacturer's manual.
An apoptotic induction assay, i.e., Caspase-3 assay was performed to understand QA's impact on cellular apoptosis in primary human PASMCs following 6-hour treatment. […] Moreover, another apoptotic induction assay, i.e., Annexin V FITC assay was also used to measure the effects of QA on serum-starved bovine PASMCs.
(§2) In other independent experiments, QA's ability to modulate autophagy/apoptotic pathways was quantified in vitro in serum-starved bovine PASMC cells. Similar results were observed.

[2] = system: serum starved human PASMC; assay: Proliferation after cell starvation, CyQUANT Direct; settings: Day 5 at 3.1 and 6.2 μM, Day 3 at 6.2 μM
Experimental: Primary human PASMC were treated with QA up to 6.2 μM concentration. Cell proliferation was quantified by Cyquant Direct.
Briefly, diseased IPAH SMC II cells were seeded in TC-treated 96 well plates in FBS-rich medium and were allowed to adhere overnight. Following day, FBS-rich media was replaced with FBS-Starved media (0% FBS). Cells were further incubated at 37° C./5% CO2 for 24 hours followed by treatments with varying concentrations of QA (1.5-, 3.1-, and 6.2-μM) with dilutions being made in FBS-Starved media. Cellular proliferation was measured as described herein.
In-vitro studies to measure anti-proliferative activity of QA against pulmonary hypertension were performed using primary human PASMC (FIG. 3), primary bovine PASMC (FIG. 4) and high altitude PASMC (HAPASMC) (FIG. 4). HAPASMC, due to prolonged hypoxia exposure, are known to be hyper-proliferative in regular culture conditions, while hyper-proliferation was induced in PASMC cells by 24 hour serum starvation, or by exposure to 5-hydroxytryptamine (5-HT). […] As hyper-proliferation of vascular smooth muscle cells is one of the primary underlying causes for clinical progression of PH pathogenesis, these experiments highlight the therapeutic potential of QA in reversing PH symptoms and progression at non-toxic doses.

[3] = system: serum starved bovine PASMCs; assay: Autophagy inhibition assay, Cyto-ID autophagy detection kit; settings: QA 2.5 and 5 μM, 24 hours
Experimental: as §1
Bovine PASMCs were serum starved in FBS-free media for 24 hours, and then treated with QA for 24 hours at various concentrations (0, 2.5, or 5 μM). Autophagic inhibition (lysosomal fusion with autophagosomes) was measured with Cyto-ID® autophagy detection kit (Enzo Lifesciences Inc., Farmingdale NY) according to manufacturer's manual.
Autophagy inhibition (lysosomal fusion with autophagosomes) by QA was examined. Bovine PASMCs were serum starved in FBS-free media for 24 hours, and then treated with QA (2.5 and 5 μM) for 24 hours. Autophagic inhibition was measured with Cyto-ID® autophagy detection kit. […] QA-induced autophagy inhibition by targeting LC3B-II expression was examined using HAPASMCs.
as §2

CCN(CC)CCCC(C)Nc1c2ccc(Cl)cc2nc2ccc(OC)cc12 (stereo not drawn) [QA, quinacrine]
apoptotic induction (fluorescence intensity of Annexin-V stained cells) [1]: significantly enhanced apoptotic induction
cellular hyper-proliferation [2]: Significant reduction
accumulation of fluorescent dye in autophagosomes (autophagy inhibition) [3]: significantly enhanced the accumulation
